Results: patent publication US20260258172A1, “CATIONIC POLYMERS WITH SELECTIVE ANTIFUNGAL PROPERTIES” (Uniwersytet Jagiellonski, priority 2022, published 2026)

Legend:
Assay type in all cases: cell-based
[1] = tested on: Aspergillus fumigatus DSM 819; assay: Antifungal microdilution MIC test; settings: Aspergillus fumigatus, DSM819, comparative test
Experimental: (§1) In vitro tests of the antifungal activity of the polymers were performed with respect to selected fungal species obtained from international culture collections and the microorganism collection in the Department of Infection Control and Mycology, Chair of Microbiology, Jagiellonian University Medical College. The test was performed using the microdilution method in a liquid medium on flat-bottomed, 96-well polypropylene titration plates. The applied methodology was based on antifungal susceptibility testing procedures developed by the European Committee on Antimicrobial Susceptibility Testing (EUCAST) and on the Hancock Lab procedure for antimicrobial cationic peptides.
(§2) The test compounds were dissolved in sterile distilled water and starting concentrations of 5 g/L were prepared, from which a series of two-fold dilutions in water were obtained. Respective polymer dilutions were transferred in a volume of 20 μL on titration plates (wells 1-10). 20 μL of sterile distilled water was transferred to each of wells 11 and 12. Wells 1-11 were inoculated with fungi in a volume of 180 μL of fungal cell suspensions in a liquid medium, and 180 μL of the sterile medium was transferred to well 12. Fungal suspensions were prepared from fresh cultures on agar media by collecting spores using a sterile swab into sterile distilled water or sterile distilled water with Tween-20 added. Suspensions of certain strains were filtered to remove any hyphal elements (filters with a pore diameter of 20 μm and 10 μm were used). The suspensions were brought to a density of 0.5 on the McFarland scale, and subsequently diluted to 1:20 in a liquid RPMI-1640 medium with L-glutamine and without sodium bicarbonate, supplemented with glucose (2%) and buffered morpholinopropanesulfonic acid (MOPS) (0.165 mol/L).
(§3) Final polymer concentrations on plates after adding fungal suspensions in the liquid medium were 0.49-250 mg/L or 0.98-500 mg/L.
(§4) Incubation was performed at room temperature, 27° C., 37° C., depending on the fungal species, until fungal growth was obtained in growth control (well 11). After the incubation period, fungal growth was evaluated visually and the lowest polymer concentrations that caused complete fungal growth inhibition (MIC (minimal inhibitory concentration) values) were determined.
(§5) A test was performed on selected fungal strains to compare MIC values of the PMAPTAC133 polymer with the MIC values of two known antifungal drugs (terbinafine and ciclopirox), used in the treatment of fungal infections of glabrous skin, hairy skin and nails.
(§6) The procedure described in the section above (Example 8) was used in the testing.
(§7) The drugs were dissolved in dimethyl sulfoxide (DMSO) and starting concentrations of 4 g/L were prepared, from which series of two-fold dilutions in DMSO were obtained. Respective […] concentrations were diluted to 1:100 in sterile water and subsequently transferred to wells 1-10 on a titration plate in a volume of 20 μL. Wells 11 and 12 were filled up with 20 μL DMSO diluted to 1:10 in water. Wells 1-11 were inoculated with fungi in a volume of 180 μL of fungal cell suspensions in a liquid medium, and […] of the sterile medium was transferred to well 12. Final drug concentrations on plates after adding fungal suspensions in the liquid medium were 0.008-4 mg/L.

Trichophyton rubrum D197 = assay: Antifungal microdilution MIC test; settings: comparative test
Experimental: as §1, §2, §3, §4, §5, §6, §7

[2] = tested on: Aspergillus brasiliensis ATCC 16404; assay: Antifungal microdilution MIC test; settings: Aspergillus brasiliensis, ATCC16404, comparative test
Experimental: as §1, §2, §3, §4, §5, §6, §7

[3] = tested on: Trichophyton tonsurans DSM 12285; assay: Antifungal microdilution MIC test; settings: DSM12285, comparative test
Experimental: as §1, §2, §3, §4, §5, §6, §7

[4] = tested on: Fusarium solani strain 155; assay: Antifungal microdilution MIC test; settings: comparative test
Experimental: as §1, §2, §3, §4, §5, §6, §7

[5] = tested on: Trichophyton rubrum DSM 16111; assay: Antifungal microdilution MIC test; settings: DSM16111, comparative test
Experimental: as §1, §2, §3, §4, §5, §6, §7

[6] = tested on: Aspergillus fumigatus SU 56; assay: Antifungal microdilution MIC test; settings: Aspergillus fumigatus, SU56, comparative test
Experimental: as §1, §2, §3, §4, §5, §6, §7

[7] = tested on: Trichophyton tonsurans 264; assay: Antifungal microdilution MIC test; settings: comparative test
Experimental: as §1, §2, §3, §4, §5, §6, §7

[8] = tested on: Trichophyton interdigitale D182; assay: Antifungal microdilution MIC test; settings: comparative test
Experimental: as §1, §2, §3, §4, §5, §6, §7

[9] = tested on: Scopulariopsis brevicaulis 34; assay: Antifungal microdilution MIC test; settings: comparative test
Experimental: as §1, §2, §3, §4, §5, §6, §7

Cryptococcus neoformans = assay: Antifungal microdilution MIC test; settings: comparative test; for MIC: Cryptococcus neoformans
Experimental: as §1, §2, §3, §4, §5, §6, §7

[10] = tested on: Aspergillus terreus DSM 1958; assay: Antifungal microdilution MIC test; settings: Aspergillus terreus, DSM1958, comparative test
Experimental: as §1, §2, §3, §4, §5, §6, §7

Trichophyton rubrum D320 = assay: Antifungal microdilution MIC test; settings: comparative test
Experimental: as §1, §2, §3, §4, §5, §6, §7

[11] = tested on: Aspergillus flavus ATCC 204304; assay: Antifungal microdilution MIC test; settings: Aspergillus flavus, ATCC204304, comparative test
Experimental: as §1, §2, §3, §4, §5, §6, §7

[12] = tested on: Trichophyton interdigitale 251; assay: Antifungal microdilution MIC test; settings: comparative test
Experimental: as §1, §2, §3, §4, §5, §6, §7

[13] = tested on: Scopulariopsis brevicaulis DSM 9122; assay: Antifungal microdilution MIC test; settings: DSM9122, comparative test
Experimental: as §1, §2, §3, §4, §5, §6, §7

[14] = tested on: Trichophyton interdigitale DSM4167; assay: Antifungal microdilution MIC test; settings: comparative test
Experimental: as §1, §2, §3, §4, §5, §6, §7

[15] = tested on: Trichophyton mentagrophytes ATCC 18484; assay: Antifungal microdilution MIC test; settings: Trichophyton mentagrophytes, ATCC18484, comparative test
Experimental: as §1, §2, §3, §4, §5, §6, §7

[16] = tested on: Candida albicans ATCC 90028; assay: Antifungal microdilution MIC test; settings: ATCC90028, comparative test
Experimental: as §1, §2, §3, §4, §5, §6, §7

HaCaT cell line = assay: Neutral red uptake toxicity test, HaCaT keratinocytes; settings: human, 24 h, 5 μg/mL
Experimental: The testing was performed in the HaCaT cell line, a nontumorigenic, immortalized human keratinocyte line. The DMEM medium was used in the culture, including a modification with 10% fetal bovine serum added. 24 h after seeding and successful adhesion, the polymer dissolved in the medium was added to the cells (the medium was first replaced with a serum-free medium in serum-free experiments), and viable cells were quantified after another 24 h using the neutral red uptake assay.
The toxicity of terbinafine and ciclopirox, two commercially used antifungal drugs, was evaluated in similar conditions (the same cell line, medium composition and exposure time). As for ciclopirox, the serum-free medium was not used because the drug strongly interacts with serum and testing in a serum-free medium would have been unreliable. The results are shown in graphs in FIG. 8 and FIG. 9.

[17] = tested on: 3T3-L1 murine embryonic fibroblast line; assay: Neutral red uptake toxicity test, 3T3-L1 fibroblasts; settings: medium with serum, 24 h exposure
Experimental: Preliminary tests were conducted in the 3T3-L1 murine embryonic fibroblast line (ATCC, CL-173™), an immortalized line (highly tolerant cells). DMEM was used as the medium. 24 h after seeding and successful adhesion, polymers dissolved in the medium were added to the cells (the medium was first replaced with a serum-free medium in serum-free experiments), and viable cells were quantified after another 24 h using the neutral red uptake assay.
The toxicity of ciclopirox and terbinafine, two commercially used antifungal drugs, was evaluated in similar conditions (the same cell line, medium composition and exposure time).

Candida krusei ATCC 6258 = assay: Antifungal microdilution MIC test; settings: Pichia kudriavzevii, ATCC6258, comparative test
Experimental: as §1, §2, §3
as §4, with “determined. […]” for “determined.”

Fusarium solani DSM 1164 = assay: Antifungal microdilution MIC test; settings: DSM1164, comparative test
Experimental: as §1, §2, §3
as §4, with “determined. […]” for “determined.”

Fusarium oxysporum 109 = assay: Antifungal microdilution MIC test; settings: comparative test
Experimental: as §1, §2, §3
as §4, with “determined. […]” for “determined.”

[18] = tested on: Candida glabrata ATCC 15545; assay: Antifungal microdilution MIC test; settings: Nakaseomyces glabratus, ATCC15545, comparative test
Experimental: as §1, §2, §3
as §4, with “determined. […]” for “determined.”

[19] = tested on: Fusarium oxysporum DSM 841; assay: Antifungal microdilution MIC test; settings: DSM841, comparative test
Experimental: as §1, §2, §3
as §4, with “determined. […]” for “determined.”

MIC ([1]; incubation time 24 h): > 4 µg/mL
MIC ([1]; incubation time 48 h): > 4 µg/mL
MIC (Trichophyton rubrum D197; incubation time 48 h): > 4 µg/mL
MIC (Trichophyton rubrum D197; incubation time 72 h): > 4 µg/mL
MIC ([2]; incubation time 24 h): > 4 µg/mL
MIC ([2]; incubation time 48 h): > 4 µg/mL
MIC ([3]; incubation time 48 h): > 4 µg/mL
MIC ([3]; incubation time 72 h): > 4 µg/mL
MIC ([4]; incubation time 24 h): > 4 µg/mL
MIC ([4]; incubation time 48 h): > 4 µg/mL
MIC ([5]; incubation time 24 h): > 4 µg/mL
MIC ([5]; incubation time 48 h): > 4 µg/mL
MIC ([5]; incubation time 72 h): > 4 µg/mL
MIC ([6]; incubation time 24 h): > 4 µg/mL
MIC ([6]; incubation time 48 h): > 4 µg/mL
MIC ([7]; incubation time 48 h): > 4 µg/mL
MIC ([7]; incubation time 72 h): > 4 µg/mL
MIC ([8]; incubation time 24 h): > 4 µg/mL
MIC ([8]; incubation time 48 h): > 4 µg/mL
MIC ([8]; incubation time 72 h): > 4 µg/mL
MIC ([9]; incubation time 24 h): > 4 µg/mL
MIC ([9]; incubation time 48 h): > 4 µg/mL
MIC (Cryptococcus neoformans; incubation time 24 h): > 4 µg/mL
MIC (Cryptococcus neoformans; incubation time 48 h): > 4 µg/mL
MIC ([10]; incubation time 24 h): > 4 µg/mL
MIC ([10]; incubation time 48 h): > 4 µg/mL
MIC (Trichophyton rubrum D320; incubation time 24 h): > 4 µg/mL
MIC (Trichophyton rubrum D320; incubation time 48 h): > 4 µg/mL
MIC (Trichophyton rubrum D320; incubation time 72 h): > 4 µg/mL
MIC ([11]; incubation time 24 h): > 4 µg/mL
MIC ([11]; incubation time 48 h): > 4 µg/mL
MIC ([12]; incubation time 24 h): > 4 µg/mL
MIC ([12]; incubation time 48 h): > 4 µg/mL
MIC ([12]; incubation time 72 h): > 4 µg/mL
MIC ([13]; incubation time 24 h): > 4 µg/mL
MIC ([13]; incubation time 48 h): > 4 µg/mL
MIC ([14]; incubation time 24 h): > 4 µg/mL
MIC ([14]; incubation time 48 h): > 4 µg/mL
MIC ([14]; incubation time 72 h): > 4 µg/mL
MIC ([15]; incubation time 24 h): > 4 µg/mL
MIC ([15]; incubation time 48 h): > 4 µg/mL
MIC ([15]; incubation time 72 h): > 4 µg/mL
MIC ([16]; incubation time 24 h): > 4 µg/mL
MIC ([16]; incubation time 48 h): > 4 µg/mL
MIC (Candida krusei ATCC 6258; incubation time 24 h): > 4 µg/mL
MIC (Candida krusei ATCC 6258; incubation time 48 h): > 4 µg/mL
MIC (Fusarium solani DSM 1164; incubation time 24 h): > 4 µg/mL
MIC (Fusarium solani DSM 1164; incubation time 48 h): > 4 µg/mL
MIC (Fusarium oxysporum 109; incubation time 24 h): > 4 µg/mL
MIC (Fusarium oxysporum 109; incubation time 48 h): > 4 µg/mL
MIC ([18]; incubation time 24 h): > 4 µg/mL
MIC ([18]; incubation time 48 h): > 4 µg/mL
MIC ([19]; incubation time 24 h): > 4 µg/mL
MIC ([19]; incubation time 48 h): > 4 µg/mL
Compound: Cc1cc(C2CCCCC2)n(O)c(=O)c1 [Ciclopirox, ciclopirox]
concentration with slight growth suppression (Cryptococcus neoformans; incubation time 24 h): >4 slight mg/L
reduction of viable keratinocyte cells compared to the control (HaCaT cell line): 30%
concentration at which the number of viable cells decreased to less than 50% [17]: ≥ 5000 ng/mL
